Experimental data as given in patent US7759366B2 (Sanofi-Aventis, priority 2006, dated 2010).

biological target: hCB1R (Homo sapiens, UniProt P21554); assay: Binding to the CB1 receptor ([3H]-SR141716A displacement); conditions: not given
Experimental: Binding to the CB1 Receptor:
Test compounds: The compounds (3 μl, 10 mM, 100% DMSO), pipetted into 96-well PP microtiter plates, were diluted with 27 μl of 100% DMSO (dimethyl sulfoxide). Proceeding from this solution, further 3-fold dilution steps were undertaken by transferring 10 μl in each case to a new PP microtiter plate and adding a further 20 μl of 100% DMSO. In each case 6 μl of these solutions were transferred into new 96-well PP microtiter plates and made up with 144 μl of assay buffer. The end concentrations ranged from 10 μM to 0.005 μM. Negative control: AM 251, dissolved in assay buffer with 1% DMSO, was added to the dilution series in the microtiter plates as a control. The end concentration was 1 μM. Blank control: assay buffer with 1% DMSO was added to the dilution series of the microtiter plates as a blank control.
Summary of the Assay Parameters:
High control: ^3H binding without addition of the compound
Low control: ^3H binding in the presence of 1 μM AM 251
The values were calculated using the corrected raw data.
The values reported were obtained as average values of a double determination. The IC50 values were calculated from the measurements with the program Xlfit, formula 205. Ki values were obtained from the IC50 and Kd values utilizing the Cheng-Prusoff equation: […]
Literature: Cheng, Y.-C., and Prusoff, W. H. (1973) Biochem. Pharmacol 22, 3099-3108

Sequence of hCB1R (P21554 whole entry): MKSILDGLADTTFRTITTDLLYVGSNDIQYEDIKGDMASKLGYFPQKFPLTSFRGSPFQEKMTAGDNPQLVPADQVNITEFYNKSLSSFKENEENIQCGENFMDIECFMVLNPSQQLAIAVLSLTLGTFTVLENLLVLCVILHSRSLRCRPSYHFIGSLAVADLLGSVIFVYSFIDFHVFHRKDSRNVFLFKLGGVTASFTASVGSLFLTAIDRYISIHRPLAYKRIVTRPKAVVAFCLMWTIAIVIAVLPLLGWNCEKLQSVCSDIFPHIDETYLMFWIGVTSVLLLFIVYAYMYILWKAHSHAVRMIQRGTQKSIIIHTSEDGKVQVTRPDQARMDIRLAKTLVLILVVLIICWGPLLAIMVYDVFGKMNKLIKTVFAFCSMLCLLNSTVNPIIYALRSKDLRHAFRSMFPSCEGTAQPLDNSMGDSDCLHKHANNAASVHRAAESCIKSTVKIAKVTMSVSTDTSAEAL

SMILES	Ki [nM]
CC1(C)C(=O)N(c2ccc(C#N)c(C(F)(F)F)c2)C(=O)N1Cc1ccccc1Nc1ccncc1 [Example 61, 4-{4,4-Dimethyl-2,5-dioxo-3-[2-(pyridin-4-ylamino)benzyl]imidazolidin-1-yl}-2-trifluoromethylbenzonitrile]	19
CC1(C)C(=O)N(c2ccc(F)c(C(F)(F)F)c2)C(=O)N1Cc1ccccc1Nc1ccccc1 [Example 23, 3-(4-Fluoro-3-trifluoromethylphenyl)-5,5-dimethyl-1-(2-phenylaminobenzyl)imidazolidin-2,4-dione]	10
CC1(C)C(=O)N(c2ccc(C#N)c(C(F)(F)F)c2)C(=O)N1Cc1ccccc1Nc1ccc(F)cc1C#N [Example 53, 4-{3-[2-(2-cyano-4-fluorophenylamino)benzyl]-4,4-dimethyl-2,5-dioxoimidazolidin-1-yl}-2-trifluoromethylbenzonitrile]	2
COc1ccc(Nc2ccc(C#N)c(C(F)(F)F)c2)c(CN2C(=O)N(c3ccc(C#N)c(C(F)(F)F)c3)C(=O)C2(C)C)c1 [Example 10, 4-{3-[2-(4-cyano-3-trifluoromethylphenylamino)-5-methoxybenzyl]-4,4-dimethyl-2,5-dioxoimidazolidin-1-yl}-2-trifluoromethylbenzonitrile]	24
COc1ccc(Nc2ccc(Cl)cc2)c(CN2C(=O)N(c3ccc(C#N)c(C(F)(F)F)c3)C(=O)C2(C)C)c1 [Example 9, 4-{3-[2-(4-chlorophenylamino)-5-methoxybenzyl]-4,4-dimethyl-2,5-dioxoimidazolidin-1-yl}-2-trifluoromethylbenzonitrile]	13
COC(=O)c1ccc(Nc2cc(F)ccc2CN2C(=O)N(c3ccc(C#N)c(C(C)(C)C)c3)C(=O)C2(C)C)cc1 [Example 157, methyl 4-{2-[3-(3-tert-butyl-4-cyanophenyl)-5,5-dimethyl-2,4-dioxoimidazolidin-1-ylmethyl]-5-fluorophenylamino}benzoate]	5
CC1(C)C(=O)N(c2ccc(F)c(C(F)(F)F)c2)C(=O)N1Cc1ccccc1Nc1ccc(F)cc1F [Example 52, 1-[2-(2,4-difluorophenylamino)benzyl]-3-(4-fluoro-3-trifluoromethylphenyl)-5,5-dimethylimidazolidine-2,4-dione]	3
CC1(C)C(=O)N(c2ccc(C#N)c(C(F)(F)F)c2)C(=O)N1Cc1cc(C(F)(F)F)ccc1Nc1ccc(F)cc1 [Example 17, 4-{3-[2-(4-Fluorophenylamino)-5-trifluoromethylbenzyl]-4,4-dimethyl-2,5-dioxoimidazolidin-1-yl}-2-trifluoromethylbenzonitrile]	3
CCOC(=O)c1ccc(Nc2cc(C(F)(F)F)ccc2CN2C(=O)N(c3ccc(C#N)c(C(F)(F)F)c3)C(=O)C2(C)C)cc1 [Example 165, ethyl 4-{2-[3-(4-cyano-3-trifluoromethylphenyl)-5,5-dimethyl-2,4-dioxoimidazolidin-1-ylmethyl]-5-trifluoromethylphenylamino}benzoate]	16
CC1(C)C(=O)N(c2ccc(C#N)c(C(F)(F)F)c2)C(=O)N1Cc1cc(C(F)(F)F)ccc1Nc1ccc(Cl)cc1 [Example 19, 4-{3-[2-(4-chlorophenylamino)-5-trifluoromethylbenzyl]-4,4-dimethyl-2,5-dioxoimidazolidin-1-yl}-2-trifluoromethylbenzonitrile]	5
CC1(C)C(=O)N(c2ccc(C#N)c(C(F)(F)F)c2)C(=O)N1Cc1ccccc1Nc1ccc(C(=O)O)cc1 [Example 62]	16
CC1(C)C(=O)N(c2ccc(C#N)c(C(F)(F)F)c2)C(=O)N1Cc1ccccc1Nc1ccc2c(c1)OC(F)(F)O2 [Example 32, 4-{3-[2-(2,2-difluorobenzo[1,3]dioxol-5-ylamino)benzyl]-4,4-dimethyl-2,5-dioxoimidazolidin-1-yl}-2-trifluoromethylbenzonitrile]	3
CC(C)(C)OC(=O)c1ccc(Nc2cc(C#N)ccc2CN2C(=O)N(c3ccc(C#N)c(C(F)(F)F)c3)C(=O)C2(C)C)cc1 [Example 126, tert-Butyl 4-{5-cyano-2-[3-(4-cyano-3-trifluoromethylphenyl)-5,5-dimethyl-2,4-dioxoimidazolidin-1-ylmethyl]phenylamino}benzoate]	23
CC1(C)C(=O)N(c2ccc(F)c(C(F)(F)F)c2)C(=O)N1Cc1ccccc1Nc1ccc(C#N)cc1 [Example 134, 4-{2-[3-(4-fluoro-3-trifluoromethylphenyl)-5,5-dimethyl-2,4-dioxoimidazolidin-1-ylmethyl]phenylamino}benzonitrile]	4
CC1(C)C(=O)N(c2ccc(C#N)c(C(F)(F)F)c2)C(=O)N1Cc1ccccc1Nc1ccc(Cl)cc1Cl [Example 13, 4-{3-[2-(2,4-dichlorophenylamino)benzyl]-4,4-dimethyl-2,5-dioxoimidazolidin-1-yl}-2-trifluoromethylbenzonitrile]	0.9
CC1(C)C(=O)N(c2ccc(C#N)c(S(F)(F)(F)(F)F)c2)C(=O)N1Cc1ccccc1Nc1ccc(F)cc1F [Example 51, 4-{3-[2-(2,4-Difluorophenylamino)benzyl]-4,4-dimethyl-2,5-dioxoimidazolidin-1-yl}-2-pentafluorosulfanylbenzonitrile]	2
CC1(C)C(=O)N(c2ccc(C#N)c(C(F)(F)F)c2)C(=O)N1Cc1ccccc1Nc1cccc(S(N)(=O)=O)c1 [Example 153, 3-{2-[3-(4-Cyano-3-trifluoromethylphenyl)-5,5-dimethyl-2,4-dioxoimidazolidin-1-ylmethyl]phenylamino}benzenesulfonamide]	20
CC1(C)C(=O)N(c2ccc(C#N)c(C(F)(F)F)c2)C(=O)N1Cc1ccccc1Nc1ccc(C(=O)NCC(N)=O)cc1 [Example 161, N-carbamoylmethyl-4-{2-[3-(4-cyano-3-trifluoromethylphenyl)-5,5-dimethyl-2,4-dioxoimidazolidin-1-ylmethyl]phenylamino}benzamide]	8
CC1(C)C(=O)N(c2ccc(C#N)c(C(F)(F)F)c2)C(=O)N1Cc1ccccc1Nc1ccc(S(F)(F)(F)(F)F)cc1 [Example 26, 4-{3-[2-(4-pentafluorosulfanylphenylamino)benzyl]-4,4-dimethyl-2,5-dioxoimidazolidin-1-yl}-2-trifluoromethylbenzonitrile]	39
CC1(C)C(=O)N(c2ccc(C#N)c(C(F)(F)F)c2)C(=O)N1Cc1ccc(C#N)cc1Nc1ccc(C(=O)O)cc1 [Example 132, 4-{5-cyano-2-[3-(4-cyano-3-trifluoromethylphenyl)-5,5-dimethyl-2,4-dioxoimidazolidin-1-ylmethyl]phenylamino}benzoic acid]	6

same assay, conditions: CHO-K1/cannabinoid CB1 protein 2 μg/well; [3H]-SR141716A 0.5 nM; Ki from IC50 by Cheng-Prusoff; average of double determination; read-out: hCB1R; binding Ki

SMILES	Ki [nM]
CC1(C)C(=O)N(c2ccc(C#N)nc2)C(=O)N1Cc1ccccc1Nc1ccccc1 [Example 69]	113
CC1(C)C(=O)N(c2ccc(Oc3ccc(Cl)cc3)c(C(F)(F)F)c2)C(=O)N1Cc1ccccc1Nc1ccc(F)cc1F [Example 50, 3-[4-(4-Chlorophenoxy)-3-trifluoromethylphenyl]-1-[2-(2,4-difluorophenylamino)benzyl]-5,5-dimethylimidazolidine-2,4-dione]	11
CC1(C)C(=O)N(c2ccc(F)c(C(F)(F)F)c2)C(=O)N1Cc1ccccc1Nc1ccc(Cl)cc1 [Example 25, 1-[2-(4-chlorophenylamino)benzyl]-3-(4-fluoro-3-trifluoromethylphenyl)-5,5-dimethylimidazolidine-2,4-dione]	6
CC1(C)C(=O)N(c2ccc(C#N)c(C(F)(F)F)c2)C(=O)N1Cc1ccccc1Nc1ccc(C(=O)NN2CCCCC2)cc1 [Example 174, 4-{2-[3-(4-Cyano-3-trifluoromethylphenyl)-5,5-dimethyl-2,4-dioxoimidazolidin-1-ylmethyl]phenylamino}-N-piperidin-1-ylbenzamide]	144
CC1(C)C(=O)N(c2ccc(F)c(C(F)(F)F)c2)C(=O)N1Cc1ccc(F)cc1Nc1ccc(C(=O)N2CCC(O)CC2)cc1 [Example 171, 1-{4-Fluoro-2-[4-(4-hydroxypiperidine-1-carbonyl)phenylamino]benzyl}-3-(4-fluoro-3-trifluoromethylphenyl)-5,5-dimethylimidazolidine-2,4-dione]	120
CCNS(=O)(=O)c1ccc(Nc2ccccc2CN2C(=O)N(c3ccc(C#N)c(C(F)(F)F)c3)C(=O)C2(C)C)cc1 [Example 151, 4-{2-[3-(4-cyano-3-trifluoromethylphenyl)-5,5-dimethyl-2,4-dioxoimidazolidin-1-ylmethyl]phenylamino}-N-ethylbenzenesulfonamide]	155
COC(=O)c1ccc(Nc2cc(F)ccc2CN2C(=O)N(c3ccc(C#N)c(-c4ccccc4)c3)C(=O)C2(C)C)cc1 [Example 223]	4
CC1(C)C(=O)N(c2ccc(F)c(C(F)(F)F)c2)C(=O)N1Cc1ccccc1Nc1ccc(F)cc1 [Example 24, 1-[2-(4-fluorophenylamino)benzyl]-3-(4-fluoro-3-trifluoromethylphenyl)-5,5-dimethylimidazolidine-2,4-dione]	11
COC(=O)c1ccc(Nc2cc(F)ccc2CN2C(=O)N(c3ccnc(C(C)(C)C)c3)C(=O)C2(C)C)cc1 [Example 167, Methyl 4-{2-[3-(2-tert-butylpyridin-4-yl)-5,5-dimethyl-2,4-dioxoimidazolidin-1-ylmethyl]-5-fluorophenylamino}benzoate]	7
